Assay results reported in US20180200257A1, “METHODS FOR THE TREATMENT OF INFLAMMATORY DISORDERS” (Galapagos NV, priority 2015, published 2018).

Tested on: subjects with moderately to severely active RA who have an inadequate response to methotrexate (MTX)
Assay: Study 2 (monotherapy) - ACR responses (ACR20/50/70)
Format: in vivo, human
Description: The terms “ACR20”, “ACR50” and “ACR70” as used herein are scores which indicate how much a patient's rheumatoid arthritis has improved according to criteria set out by the American College of Rheumatology (ACR). The ACR score represents a percentage. An ACR20 score means that a person's RA has improved by 20%, an ACR50 score means it has improved by 50%, and an ACR70 score means it has improved by 70%. Specifically, to qualify for an ACR20 score, a person with RA must have at least 20% fewer tender joints and at least 20% fewer swollen joints. In addition the patient must show a 20% improvement in at least three of the following five areas: the person's overall (global) assessment of his or her own RA, the physician's global assessment of the person's RA, the person's assessment of his or her own pain, the person's assessment of his or her own physical functioning, and the results of an erythrocyte sedimentation rate or C-reactive protein (CRP) blood test (both of which test for inflammation). ACR50 and ACR70 scores use the same criteria but require 50% and 70% improvement, respectively, (Felson et al., 1993). In the data presented herein the CRP blood test is used.
Randomized, double-blind, placebo-controlled, multicenter, phase IIb dose finding study of Compound 1 (dosed as a [Compound 1:HCl:3H2O]) administered for 24 weeks as monotherapy to subjects with moderately to severely active rheumatoid arthritis who have an inadequate response to methotrexate alone
Double-blind, placebo-controlled, monotherapy study in subjects with moderately to severely active RA who have an inadequate response to methotrexate (MTX) (oral or parenteral).
280 subjects randomized to one of 3 doses of Compound 1 (dosed as a [Compound 1:HCl:3H2O]) or to placebo, given once daily (q.d.).
Twelve weeks of treatment with Compound 1 (dosed as a [Compound 1:HCl:3H2O]) at 50 mg, 100 mg, or 200 mg q.d.; or placebo. At Week 12, all subjects on placebo and the subjects on the 50 mg dose who have not achieved 20% improvement in swollen joint count (SJC66) and tender joint count (TJC68) will be assigned to 100 mg q.d. in a blinded fashion and will continue treatment until Week 24. Subjects in the other groups will maintain their randomized treatment until Week 24.
The American College of Rheumatology (ACR) composite score, which evaluates clinical improvement relative to an initial assessment, is a commonly accepted efficacy end point for clinical trials in patients with rheumatoid arthritis. The ACR score correspond to a percentage improvement in pre-set parameters, and therefore measures the evolution of the disease in a patient. For example, ACR20 denotes at least 20% improvement in tender and swollen joint counts and in three of the following end points: global assessment by the patient, global assessment by the doctor, C reactive protein (CRP), patient's pain Visual Analogue Scale and Health Assessment Questionnaire Score. The number of swollen joints, ESR and CRP correlate with radiographic progression of joint damage, whereas tender joint counts, as well as global assessments by doctors and patients, and patients' reports of pain, are sensitive to change in clinical outcomes. Physical function, as assessed by the Health Assessment Questionnaire Score, is a potent predictor of the risk of disability in rheumatoid arthritis (Felson and American College of Rheumatology Committee to Reevaluate Improvement Criteria, 2007; Felson et al., 1993).
In particular, the list of parameters used to assess ACR score can be found in the Table XCVI below and the results of the ACR responses at week 12 via either NRI or LOCF are shown in the tables below. The Hommel-corrected p-value for the pairwise comparisons of each group with placebo is shown. […]

[1] = 50 mg q.d., week 1, 12 weeks results
[2] = 50 mg q.d., week 1, 24 weeks results
[3] = 50 mg q.d., week 2, 12 weeks results
[4] = 50 mg q.d., week 2, 24 weeks results
[5] = 50 mg q.d., week 4, 12 weeks results
[6] = 50 mg q.d., week 4, 24 weeks results
[7] = 50 mg q.d., week 12, 12 weeks results
[8] = 50 mg q.d., week 12, 24 weeks results
[9] = 50 mg q.d., week 16, 24 weeks results
[10] = 50 mg q.d., week 20, 24 weeks results
[11] = 50 mg q.d., week 24, 24 weeks results
[12] = 50 mg q.d., week 8, 12 weeks results
[13] = 50 mg q.d., week 8, 24 weeks results
[14] = 100 mg q.d., week 1, 12 weeks results
[15] = 100 mg q.d., week 1, 24 weeks results
[16] = 100 mg q.d., week 2, 12 weeks results
[17] = 100 mg q.d., week 2, 24 weeks results

SMILES: O=C(Nc1nc2cccc(-c3ccc(CN4CCS(=O)(=O)CC4)cc3)n2n1)C1CC1 [Compound 1, cyclopropanecarboxylic acid {5-[4-(1,1-dioxo-thiomorpholin-4-ylmethyl)-phenyl]-[1,2,4]triazolo[1,5-a]pyridin-2-yl}-amide]
- ACR20 (LOCF) [1]: 20.8
- ACR20 (NRI) [1]: 22.2%
- ACR50 (LOCF) [1]: 1.4%
- ACR50 (NRI) [1]: 1.4%
- ACR70 (LOCF) [1]: 0.0%
- ACR70 (NRI) [1]: 0.0%
- ACR20 (LOCF) [2]: 22.2
- ACR20 (NRI) [2]: 22.2%
- ACR50 (LOCF) [2]: 1.4%
- ACR50 (NRI) [2]: 1.4%
- ACR70 (LOCF) [2]: 0.0%
- ACR70 (NRI) [2]: 0.0%
- ACR20 (LOCF) [3]: 33.3%
- ACR20 (NRI) [3]: 34.7%
- ACR50 (LOCF) [3]: 5.6%
- ACR50 (NRI) [3]: 5.6%
- ACR70 (LOCF) [3]: 1.4%
- ACR70 (NRI) [3]: 1.4%
- ACR20 (LOCF) [4]: 33.3%
- ACR20 (NRI) [4]: 33.3%
- ACR50 (LOCF) [4]: 5.6%
- ACR50 (NRI) [4]: 5.6%
- ACR70 (LOCF) [4]: 1.4%
- ACR70 (NRI) [4]: 1.4%
- ACR20 (LOCF) [5]: 54.2%
- ACR20 (NRI) [5]: 54.2%
- ACR50 (LOCF) [5]: 13.9%
- ACR50 (NRI) [5]: 15.3%
- ACR70 (LOCF) [5]: 8.3%
- ACR70 (NRI) [5]: 8.3%
- ACR20 (LOCF) [6]: 52.8%
- ACR20 (NRI) [6]: 52.8%
- ACR50 (LOCF) [6]: 15.3%
- ACR50 (NRI) [6]: 15.3%
- ACR70 (LOCF) [6]: 8.3%
- ACR70 (NRI) [6]: 8.3%
- ACR50 (NRI) [7]: 36.1%%
- ACR70 (NRI) [7]: 8.3%%
- ACR50 (NRI) [8]: 34.7%
- ACR70 (NRI) [8]: 8.3%
- ACR50 (NRI) [9]: 33.3%
- ACR70 (NRI) [9]: 15.3%
- ACR50 (NRI) [10]: 27.8%
- ACR70 (NRI) [10]: 12.5%
- ACR50 (NRI) [11]: 31.9%
- ACR70 (NRI) [11]: 19.4%
- ACR20 (LOCF) [12]: 62.5%
- ACR20 (NRI) [12]: 61.1%
- ACR50 (LOCF) [12]: 16.7%
- ACR50 (NRI) [12]: 16.7%
- ACR70 (LOCF) [12]: 6.9%
- ACR70 (NRI) [12]: 6.9%
- ACR20 (LOCF) [13]: 61.1%
- ACR20 (NRI) [13]: 61.1%
- ACR50 (LOCF) [13]: 16.7%
- ACR50 (NRI) [13]: 16.7%
- ACR70 (LOCF) [13]: 6.9%
- ACR70 (NRI) [13]: 6.9%
- ACR20 (LOCF) [14]: 24.3%
- ACR20 (NRI) [14]: 24.3%
- ACR50 (LOCF) [14]: 10.0%
- ACR50 (NRI) [14]: 10.0%
- ACR70 (LOCF) [14]: 1.4%
- ACR70 (NRI) [14]: 1.4%
- ACR20 (LOCF) [15]: 24.3%
- ACR20 (NRI) [15]: 24.3%
- ACR50 (LOCF) [15]: 10.0%
- ACR50 (NRI) [15]: 10.0%
- ACR70 (LOCF) [15]: 1.4%
- ACR70 (NRI) [15]: 1.4%
- ACR20 (LOCF) [16]: 34.3%
- ACR20 (NRI) [16]: 32.9%
- ACR50 (LOCF) [16]: 8.6%
- ACR50 (NRI) [16]: 7.1%
- ACR70 (LOCF) [16]: 1.4%
- ACR70 (NRI) [16]: 1.4%
- ACR20 (LOCF) [17]: 35.7%
- ACR20 (NRI) [17]: 32.9%
- ACR50 (LOCF) [17]: 8.6%
- ACR50 (NRI) [17]: 7.1%
- ACR70 (LOCF) [17]: 1.4%
- ACR70 (NRI) [17]: 1.4%
- ACR20 (LOCF) (100 mg q.d., week 4, 12 weeks results): 44.3%
